Source: USRE44599E1, “Quinazolinones as inhibitors of human phosphatidylinositol 3-kinase delta” (ICOS Corporation, priority 2004, dated 2013)

Key:
[1] = system: neutrophil; conditions: cited from earlier work
[2] = system: Class I PI 3-kinases; conditions: read-out: IC50 against each of the various Class I PI 3-kinases; cited from earlier work
[3] = system: neutrophil; conditions: cited from earlier work; remark: listed apart in the source
[4] = system: osteoclasts; test: Osteoclast function (pit depths on dentine slices); format: cell-based, mouse; conditions: PI3K inhibitors 100 nM, 72 hr
Protocol: To analyze the effect of the present PI3Kδ inhibitor compounds on osteoclasts, mouse bone marrow cells are isolated and differentiated to osteoclasts by treating the cells with Macrophage Colony Stimulating Factor^−1 (mCSF^−1) and Osteoprotegerin Ligand (OPGL) in serum-containing medium (αMEM with 10% heat-inactivated FBS; Sigma) for 3 days. On day four, when the osteoclasts had developed, the medium is removed and cells are harvested. The osteoclasts are plated on dentine slices at 10^5 cells/well in growth medium, i.e., αMEM containing 1% serum and 2% BSA with […] OPGL and 10 ng/mL mCSF^−1. After 3 hr, the medium is changed to 1% serum and 1% BSA, with or without osteopontin (25 μg/mL) and the PI3K inhibitors (100 nM). The medium is changed every 24 hours with fresh osteopontin and the inhibitors. At 72 hr, the medium is removed, and the dentine surfaces are washed with water to remove cell debris and stained with acid hematoxylin. Excess stain is washed and the pit depths are quantitated using confocal microscopy.

Row | Compound | neutrophil migration [1] | IC50 [2] [nM] | superoxide release [3] | osteoclast activity [4]
1 | COC[C@H]1OC(=O)c2coc3c2[C@@]1(C)C1=C(C3=O)[C@@H]2CCC(=O)[C@@]2(C)C[C@H]1OC(C)=O [wortmannin] | block neutrophil migration | 1 to 10 | block neutrophil migration and superoxide release | inhibited osteoclast activity
2 | O=c1cc(N2CCOCC2)oc2c(-c3ccccc3)cccc12 [LY294002] | block neutrophil migration | – | block neutrophil migration and superoxide release | inhibited osteoclast activity
